US11965886B2, “Method of immobilizing a cell on a support using compounds comprising a polyethylene glycol moiety” (Roche Diagnostics Operations, Inc., priority 2013, dated 2024)
Values joined by “and” are separate entries in the source; they are usually repeats but may differ in a detail not shown here. Identical values can stand only once. Like-named read-outs stand apart in the source and are kept apart here.

Experiments:
WBCs [1] = assay: Immobilization of cells: recovery rate of cells on SA (streptavidin) plate or untreated plate (Example 3); type: cell-based
Description: The following applies for modular description of the compounds below: X=hydrophobic moiety, […]=fluorescein In the following experiment, the recovery rate of cells was determined.

WBCs [2] = assay: Labelling of cells using compounds (staining/uptake); type: cell-based
Source text: (§1) 2. Labelling of Cells Using Compounds Useful in Methods of the Invention

WBC = WBC recovery rate after centrifugation (cell stabilization, Example 5); type: cell-based; details: 300×g; for WBC recovery rate after centrifugation at different points of time, dependence on concentration: 0.35 nmol molecule A, 100 nmol and 0.5 nmol molecule B
Description: A) WBC Recovery Rate after Centrifugation and Cell Immobilization Using Different Molecules
Centrifugation characteristics: 10 min, 300×g.
B) WBC Recovery Rate after Centrifugation Using Different Compounds—Different Points of Time
Centrifugation characteristics: 10 min, 300×g. A: Choleseryl-TEG-Cholesteryl-TEG-(SpacerC18)7-Fluos-Biotin-TEG.
C) WBC Recovery Rate after Centrifugation—Different Experimenters
Centrifugation characteristics: 10 min, 300×g. Molecule: Cholesteryl-TEG-Cholesteryl-TEG-(SpacerC18)7-Fluos-Biotin-TEG.
D) WBC Recovery Rate after Centrifugation—Different Points of Time and Centrifugation Settings
Centrifugation characteristics: 20 min, 300×g.

Epithelial cells = assay: Labelling of cells using compounds (staining/uptake); type: cell-based
Source text: as §1

U937 = assay: as above; type: cell-based
Source text: as §1

MDA-MB468 = assay: as above; type: cell-based
Source text: as §1

white blood cells (WBCs) = system: white blood cells (WBCs)
Description: In particular, the performance of a single cholesterol-molecule and different dual-linker molecules (i.e. containing two hydrophobic moieties) was tested. In detail, immobilization of white blood cells (WBCs) on a Streptavidin-coated surface using different linker molecules was tested on a 12-well plate: 300 000 WBCs/well. This was followed by the measurement of the cell recovery rate after immobilization and washing of the cells using the Cellavista instrument (10× Nuclei Operator s9s5).

Hela = assay: Labelling of cells using compounds (staining/uptake); type: cell-based
Source text: as §1

[3] = cells treated with compound, streptavidin plate, repeated experiments
[4] = Sample 1, first block (concentration not given), 300 000 WBCs/well
[5] = Sample 1, compound concentration: 1 nmol/10e6 WBCs
[6] = Sample 1, compound concentration: 1 nmol/10e6 WBCs, 300 000 WBCs/well
[7] = Sample 2, compound concentration: 100 pmol/10e6 WBCs
[8] = Sample 2, compound concentration: 100 pmol/10e6 WBCs, 300 000 WBCs/well
[9] = Sample 2, compound concentration: 1 nmol/10e6 WBCs
[10] = Sample 2, compound concentration: 1 nmol/10e6 WBCs, 300 000 WBCs/well

5′-CholesterylTEG-CholesterylTEG-PEG2000-BiotinTEG-3′ [29.891137]
Recovery Rate (WBCs [1]; WBCs, concentration not given): 77.1%

5′-Myristic acid-SpacerC9-Myristic acid-PEG2000-Fluos-BiotinTEG-3′ [29.891197]
staining (WBCs [2]; remark in the Recovery Rate column): not good

Biotin-PEG-Lysin-(C18)2 [HH1755]
WBC recovery rate after centrifugation, dependence on concentration (WBC; Centrifugation: 10 min): The higher the concentration of the molecule, the higher the cell recovery rate after centrifugation

Biotin-PEG-Lysin-(C18)2 [listing 1 of 2 here]
Recovery Rate (WBCs [1]; 10 pmol/10e6 cells): 4.8%
Recovery Rate (WBCs [1]; 100 pmol/10e6 cells): 6.8%
Recovery Rate (WBCs [1]; 1 nmol/10e6 cells): 21.8% and 29.6%
Recovery Rate (WBCs [1]; 10 nmol/10e6 cells): 60.6% and 43.0% and 68.5%
Recovery Rate (WBCs [1]; WBCs, 350 pmol/10e6 cells, 0.00003% Tween22): 15.0%
Recovery Rate (WBCs [1]; WBCs, 350 pmol/10e6 cells, 0.0001% Tween21): 10.0%
Recovery Rate (WBCs [1]; WBCs, 350 pmol/10e6 cells, 0.0003% Tween20): 10.0%
Recovery Rate (WBCs [1]; WBCs, 350 pmol/10e6 cells, 0.001% Tween20): 9.0%
Recovery Rate (WBCs [1]; WBCs, 0.5 nmol/10e6 cells): 25.0% and 27.0% and 38.0%
Recovery Rate (WBCs [1]; WBCs, 50 nmol/10e6 cells): 69.0%

5′-Myristic acid-SpacerC9-Myristic acid-(SpacerC18)7-Fluos-BiotinTEG-3′ [29.891218]
Recovery Rate (WBCs [1]; WBCs, 350 pmol/10e6 cells): 50.3% and 55.1%

Sulfo-JA133-phenylboronic acid [15.000078]
Labelling (staining/uptake) of cells (Epithelial cells): ✓
Labelling (staining/uptake) of cells (WBCs [2]): ✓ not all

5′-CholesterylTEG-CholesterylTEG-(SpacerC18)7-Fluos-BiotinTEG-3′ [29.891222]
WBC recovery rate after centrifugation, different experimenters, dependence on concentration (WBC; Centrifugation: 10 min): the higher the molecule concentration, the higher the cell recovery rate after centrifugation
WBC recovery rate after centrifugation at different points of time, dependence on concentration (WBC; Centrifugation: 10 min): The higher the molecule concentration, the higher the cell recovery rate after centrifugation
cell stabilization, dependence on experimenter (WBC; Experimenters 1, 2 and 3, 10 min): cell stabilization is independent on the experimenter

5′-Myristic acid-SpacerC12-Myristic acid-(SpacerC18)7-Fluos-BiotinTEG-3 [29.891219]
Recovery Rate (WBCs [1]; WBCs, 350 pmol/10e6 cells): 46.3% and 39.4% and 53.7% and 56.6%

5′-alphaTocopherolTEG-PEG2000-Fluos-3′ [29.891131]
Labelling (staining/uptake) of cells (Epithelial cells): ✓
Labelling (staining/uptake) of cells (WBCs [2]): ✓ not all
Labelling (staining/uptake) of cells (U937): ✓
Labelling (staining/uptake) of cells (MDA-MB468): ✓

5′-Myristic acid-Myristic acid-(SpacerC18)7-Fluos-BiotinTEG-3′ [29.891214]
Recovery Rate (WBCs [1]; WBCs, 350 pmol/10e6 cells): 78.9% and 68.7% and 90.5% and 81.1% and 65.9% and 84.9% and 85.1%
Recovery rate treated cells (SA-plate) (WBCs [1]; [3]): 78.9%

5′-Myristic acid-SpacerC18-Myristic acid-(SpacerC18)7-Fluos-BiotinTEG-3′ [29.891220]
Recovery Rate (WBCs [1]; WBCs, 350 pmol/10e6 cells): 35.8% and 41.4% and 55.9% and 63.5%

5′-Myristic acid-CholesterylTEG-(SpacerC18)7-Fluos-BiotinTEG-3′ [29.891227]
Recovery Rate (WBCs [1]; WBCs, 350 pmol/10e6 cells): 64.9% and 69.6% and 77.8%

5′-CholesterylTEG-SpacerC18-CholesterylTEG-(SpacerC18)7-Fluos-BiotinTEG-3′ [29.891225]
Recovery Rate (WBCs [1]; WBCs, 350 pmol/10e6 cells): 38.8% and 46.5%

5′-(Cholesteryl-TEG)2-Spacer C12-dT-Biotin_TEG-3′ INVERS [29.891253]
Recovery Rate (WBCs [1]; 10 pmol/10e6 cells): 47.42%
Recovery Rate (WBCs [1]; 100 pmol/10e6 cells): 73.46% and 41.44% and 62.59% and 71.41%
Recovery Rate (WBCs [1]; 1 nmol/10e6 cells): 96.84% and 72.13% and 79.02% and 86.21%
Recovery Rate (WBCs [1]; 10 nmol/10e6 cells): 102.36%
Recovery Rate (white blood cells (WBCs); [4]): 41.44%
cells counted per well (white blood cells (WBCs); [4]): 105061 and 128195 and 139678
Recovery Rate (white blood cells (WBCs); [5]): 72.13%
cells counted per well (white blood cells (WBCs); [6]): 218861 and 221471 and 208802
Mean (cells counted per well) (white blood cells (WBCs); [7]): 187757.67
Recovery Rate (white blood cells (WBCs); [7]): 62.59%
cells counted per well (white blood cells (WBCs); [8]): 178919 and 197130 and 187224
Mean (cells counted per well) (white blood cells (WBCs); [9]): 237052.33
Recovery Rate (white blood cells (WBCs); [9]): 79.02%
cells counted per well (white blood cells (WBCs); [10]): 239105 and 240632 and 231420

5′-(Cholesterol-TEG)1-Doubler-dT-Biotin-3′ [29.891272]
Recovery Rate (WBCs [1]; 10 pmol/10e6 cells): 65.03%
Recovery Rate (WBCs [1]; 100 pmol/10e6 cells): 83.08% and 56.49% and 62.11% and 82.01%
Recovery Rate (WBCs [1]; 1 nmol/10e6 cells): 87.93% and 72.13% and 82.47%
Recovery Rate (WBCs [1]; 10 nmol/10e6 cells): Cells lysed
Recovery Rate (white blood cells (WBCs); [4]): 56.49%
cells counted per well (white blood cells (WBCs); [4]): 147132 and 179643 and 181620
Recovery Rate (white blood cells (WBCs); [5]): 72.13%
cells counted per well (white blood cells (WBCs); [6]): 199973 and 220701 and 228481
Mean (cells counted per well) (white blood cells (WBCs); [7]): 186316.33
Recovery Rate (white blood cells (WBCs); [7]): 62.11%
cells counted per well (white blood cells (WBCs); [8]): 161504 and 201424 and 196021
Mean (cells counted per well) (white blood cells (WBCs); [9]): 247418.33
Recovery Rate (white blood cells (WBCs); [9]): 82.47%
cells counted per well (white blood cells (WBCs); [10]): 241232 and 254894 and 246129
cell immobilization characteristics, mono linker vs dual linker (white blood cells (WBCs); conclusion of Example 4): shows similar cell immobilization characteristics compared dual linker molecules

Biotin-PEG-Lysin-(C18)2 [listing 2 of 2 here]
enables cell immobilization within (WBC; Centrifugation: 10 min): ≤ 3.5 h
WBC recovery rate after centrifugation at different points of time, dependence on concentration (WBC; Centrifugation: 10 min): The higher the molecule concentration, the higher the cell recovery rate after centrifugation

5′-Myristic acid-Myristic acid-PEG2000-Fluos-BiotinTEG-3′ [29.891194]
Recovery Rate (WBCs [1]; WBCs, 350 pmol/10e6 cells): 21-26%

Biotin-PEG-Lys-(C14)2 [15.260268]
Recovery Rate (WBCs [1]; 1.77 nmol/10e6 Cells): 85.72
Recovery rate treated cells (SA-plate) (WBCs [1]; 2.16 μg/2 × 10e6 WBCs): 39.6%
Recovery rate treated cells (SA-plate) (WBCs [1]; 21.6 μg/2 × 10e6 WBCs): 46.7%
Recovery rate treated cells (SA-plate) (WBCs [1]; 216 μg/2 × 10e6 WBCs): 51.8%
Recovery Rate (WBCs [1]; WBCs, concentration not given): 52-86%

CCCCCCCCCCCCCCCC(=O)OC[C@H](COP(=O)(O)OCCNC(=O)CCc1ccc2n1[B-](F)(F)[N+]1=C(C)C=C(C)C1=C2)OC(=O)CCCCCCCCCCCCCCC.CCN(CC)CC [Phosphatidylethanolamine, N-(4,4-difluoro-5,7-dimethyl-4-bora-3a,4a-diaza-s-indacene-3-propionyl)-1,2-dihexadecanoyl-sn-glycero-3-phosphoethanolamine, triethylammonium salt]
Labelling (staining/uptake) of cells (Hela): x/✓ very weak

Biotin-PEG-Lysin-(C18)2 [HH1750]
WBC recovery rate after centrifugation, dependence on concentration (WBC; Centrifugation: 10 min): The higher the concentration of the molecule, the higher the cell recovery rate after centrifugation

5′-(Cholesteryl-TEG)2-PEG2000-Fluos-Biotin_TEG-3′ INVERS [29.891250]
Recovery Rate (WBCs [1]; 100 pmol/10e6 cells): 48.66%
Recovery Rate (WBCs [1]; 1 nmol/10e6 cells): 81.29%

CCCCCCCCCCCCCCCCCCCCCCN1/C(=C/C=C/c2oc3ccccc3[n+]2CCC)Oc2ccccc21.[I-] [PKH2]
Labelling (staining/uptake) of cells (Epithelial cells): ✓ not all

5′-CholesterylTEG-SpacerC12-CholesterylTEG-(SpacerC18)7-Fluos-BiotinTEG-3 [29.891224]
Recovery Rate (WBCs [1]; WBCs, 350 pmol/10e6 cells): 119.4% and 60.6% and 64.4% and 70.3% and 78.1%

5′-Myristic acid-Myristic acid-Myristic acid-(SpacerC18)7-Fluos-BiotinTEG-3′ [29.891221]
Recovery Rate (WBCs [1]; WBCs, 350 pmol/10e6 cells): 46.0% and 79.4% and 68.8% and 76.5% and 83.4%

CCCCCCCCCCCCCCCC(=O)OC[C@H](COP(=O)([O-])OCCNC(=O)CCCCCNC(=O)CCCC[C@@H]1SC[C@@H]2NC(=O)N[C@@H]21)OC(=O)CCCCCCCCCCCCCCC.[Na+]
Recovery Rate (WBCs [1]; 10 pmol/10e6 cells): 54.30% and 45.40%
Recovery Rate (WBCs [1]; 100 pmol/10e6 cells): 72.20% and 86.10%
Recovery Rate (WBCs [1]; 300 pmol/10e6 cells): 51.80% and 55.90% and 52.60% and 73.07% and 61.27% and 71.40%
Recovery Rate (WBCs [1]; 1 nmol/10e6 cells): 84.90% and 89.30%

Biotin-PEG-Lysin-(C18)2 [HH1749]
WBC recovery rate after centrifugation, dependence on concentration (WBC; Centrifugation: 10 min): The higher the concentration of the molecule, the higher the cell recovery rate after centrifugation

5′-Myristic acid-Myristic acid-SpacerC18-Fluos-BiotinTEG-3′ [29.891213]
Recovery Rate (WBCs [1]; WBCs, 350 pmol/10e6 cells): 67.4% and 61.9% and 80.2% and 70.4%
Recovery rate treated cells (SA-plate) (WBCs [1]; [3]): 67.4%

CCCCCCCC/C=C\CCCCCCCC(=O)OC[C@H](COP(=O)([O-])OCCNC(=O)CCCCCNC(=O)CCCC[C@@H]1SC[C@@H]2NC(=O)N[C@@H]21)OC(=O)CCCCCCC/C=C\CCCCCCCC.[Na+]
Recovery Rate (WBCs [1]; 10 pmol/10e6 cells): 66.30% and 74.40%
Recovery Rate (WBCs [1]; 500 pmol/10e6 cells): 80.16% and 95.94%
Recovery Rate (WBCs [1]; 1 nmol/10e6 cells): 95.80% and 101.76%
Recovery Rate (WBCs [1]; 10 nmol/10e6 cells): 89.19% and 105.12%

5′-Cholesteryl-TEG-PEG2000-Fluos-3′ [29.891132]
Labelling (staining/uptake) of cells (Epithelial cells): ✓
Labelling (staining/uptake) of cells (WBCs [2]): ✓ not all
Labelling (staining/uptake) of cells (U937): ✓
Labelling (staining/uptake) of cells (MDA-MB468): ✓
